Reference: patent US20130231305A1, “Method of Modulating Protein 14-3-3 Functionality By Facilitating or Inhibiting Phosphorylation” (Medvet Science Pty. Ltd., priority 2010, published 2013)
Where a chain is given by its changes, count along the chain named.

How the values were obtained:
[1] = tested on: 14-3-3 isoforms; test: Phosphorylation of recombinant 14-3-3 isoforms by PKA catalytic subunit; assay type: biochemical; settings: 50 μM in 0.1% ethanol
Experimental: FIG. 3 is an image depicting that sphingosine is required for the phosphorylation of multiple 14-3-3 isoforms in the third helix. (A) Primary sequence alignment of 14-3-3 isoforms in the third helix showing conservation of a Ser phosphorylation site (shown in bold). Asterisks indicate identical amino acids. (B) Recombinant 14-3-3 isoforms were incubated with PKA catalytic subunit in the presence of 50 μM sphingosine, dimethyl-sphingosine (DMS) or FTY 720 (FTY) delivered in 0.1% ethanol (EtOH). Phosphorylated 14-3-3s were detected by autoradiography. Gels were coomassie stained to show equal loading of 14-3-3 substrate.
Substrate 14-3-3 (either 0.5 μg of purified recombinant 14-3-3, a […] of fractions from gel filtration or immunoprecipitates from 14-3-3ζ-Myc transfected COS cells) were added to reaction mixture comprising 0.2 Units of the PKA catalytic subunit, in the presences or absence of sphingolipid (delivered in 0.1% v/v ethanol) in PICA reaction buffer (20 mM MOPS, pH 7.4, 20 mM β-glycerol phosphate, 4 mM EGTA, 1 mM Na3VO4, 60 mM MgCl2, 1 mM DTT, 500 μM ATP, 2.4 μCi [^32P]γ-ATP). Reactions were incubated at 37° C. for 15 minutes. After incubation, reactions were separated on 12.5% SDS-PAGE, coomassie stained and 14-3-3 phosphorylation analysed by autoradiography.

[2] = tested on: Jurkat cells; test: Jurkat cell apoptosis (TMRE staining, NucView caspase activity); assay type: cell-based; settings: 2 μM
Source text: (A) Immunoblotting of lysates from either parental Jurkat cells (Jurkat) or cells transduced with lentivirus encoding either wild type (Wt) or S58A 14-3-3ζ-Myc with either an anti-14-3-3ζ specific antibody (upper panel) or an anti-pan 14-3-3 antibody (middle panel) to compare the expression level of transduced protein. Myc immunoprecipitates were also immunoblotted with an anti-phospho 14-3-3 binding site antibody (lower panel) to detect proteins associated with 14-3-3ζ-Myc. Endogenous 14-3-3 is indicated by an open arrow and exogenous 14-3-3ζ-Myc with a closed arrow. (B) Lysates from either wild type (Wt) or S58A 14-3-3ζ-Myc expressing Jutkat cells were subjected to in vitro PKA phosphorylation in the presence (+) or absence (−) of […] and the samples immunoblotted after SDS-PAGE separation With either anti-Myc antibody (upper panel), anti-14-3-3ζ antibody (middle panel) or anti-phospho Ser58 14-3-3ζ antibody (lower panel). (C) Serum-starved Jurkat cells were treated with 2 μM FTY720 for 4 h prior to staining with TMRE and NucView™. Forward- versus side-scatter plots (FS versus SS) show the viable cell populations for FTY720 and EtOH (vehicle) treated cells which are analysed in the lower histograms for caspase activity (NucView™) versus ΔΨM (TMRE). (D and E) Jurkat cell lines expressing either wild type or S58A 14-3-3ζ-Myc by lentiviral transduction were serum-starved for 2 h and treated with either 0.1% ethanol vehicle alone (EtOH), 2 μM dimethyl-sphingosine (DMS), or 2 μM FTY720. Cells were analysed by TMRE staining at 4 h (D) or at the time points indicated (E). (D) Representative analyses of TMRE staining with forward- versus side-scatter plots inset to show the similarity in cell populations. (E) Graphical representation of TMRE analysis over time with open symbols representing vehicle (0.1% EtOH) treated cells and closed symbols representing FTY720 treated cells. […]
FIG. 11. […] Effect of TMAs on Jurkat cells after 16 hours incubation assessed by ΔΨM (TMRE) and caspase 3 activity (NucView™) analysis. […] Forward-side-scatter histograms showing cell viability are inset and caspase 3 activity as assessed by NucView™ analysis of viable cells shown. E. Examples of TMA-derivatives of FTY720 that will be analysed for effects on 14-3-3 dimer stability and apoptosis.
Having confirmed appropriate expression and behaviour of Myc-tagged wild type and S58A 14-3-3ζ in the Jurkat lines, these cells were utilised in functional studies to determine the effect of S58A 14-3-3ζ expression on cell survival in response to sphingosine analogues. […] Intriguingly, Jurkat cells expressing S58A 14-3-3ζ-Myc consistently underwent commitment to apoptosis (as detected by the loss of TMRE staining) more slowly than those expressing wild type 14-3-3ζ-Myc (FIG. 8D).

[3] = biological target: T1, 14-3-3ζ D20N mutant (Homo sapiens, UniProt P63104, D20N); test: Phosphorylation of D20N mutant 14-3-3ζ by PKA catalytic subunit with FTY720; assay type: biochemical; settings: increasing concentrations of FTY720, FIG. 9C
T1 construct: made in house
T1 sequence (P63104 1-245 D20N): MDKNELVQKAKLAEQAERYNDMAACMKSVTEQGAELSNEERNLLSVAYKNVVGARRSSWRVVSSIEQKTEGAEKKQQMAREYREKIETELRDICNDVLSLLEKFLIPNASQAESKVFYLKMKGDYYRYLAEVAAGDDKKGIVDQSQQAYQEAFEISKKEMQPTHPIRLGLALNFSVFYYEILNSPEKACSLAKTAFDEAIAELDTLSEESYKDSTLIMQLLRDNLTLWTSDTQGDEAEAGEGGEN
Source text: FIG. 9 A depicts a side view of 14-3-3ζ in space filling representation indicating the orientation of view B. The monomer units (in green and orange) and interacting phospho-peptides, (in cyan) bound in the dual amphipathic grooves are shown. B. Bottom-up view of 14-3-3ζ with the location of S58 phosphorylation site (indicated by arrows and asterisk) and key surface acidic (in yellow) and basic (in blue) residues shown. C. In vitro phosphorylation of 14-3-3ζ wild type and mutants as indicated by catalytic PKA subunit in the presence of increasing concentrations of FTY720. […] D. Mutant 14-3-3 (as indicated) was analysed by native-PAGE and Coomassie staining. The arrow indicates the migration of dimeric 14-3-3 protein. E. A schematic representation of a 14-3-3 dimer showing the buried S58 phosphorylation site in pink, D20, the residue proposed to interact with sphingolipid in yellow and the predicted salt bridge interactions involved in dimerisation. F. & G. In silico docking of FTY720 (shown in cyan in F.) and sphingosine (in pink in G.) in 14-3-3ζ dimer interface.
The dimer interface of 14-3-3 proteins lies at the bottom of the phospho-serine binding groove and comprises a central hole of around 10 Å in diameter in which the Ser58 phosphorylation site is positioned (FIG. 9B, indicated by *). […]

[4] = biological target: T2, 14-3-3ζ (Homo sapiens, UniProt P63104); test: 14-3-3 phosphorylation by PKA catalytic subunit (autoradiography); assay type: biochemical; settings: increasing concentrations of FTY720, FIG. 9C
T2 construct: made in house
T2 sequence (P63104 1-245): T1 sequence (P63104 1-245 D20N) with N20D

[5] = 4 h, serum-starved Jurkat cells

CCCCCCCCc1ccc(CCC(N)(CO)CO)cc1 [FTY720]
phosphorylation of 14-3-3 isoforms by PKA catalytic subunit [1]: behaved similarly to sphingosine and DMS in modulating 14-3-3 for phosphorylation
caspase-3 activity (NucView) [2, 5]: activation of caspase-3
commitment to apoptosis (loss in TMRE staining) [2, 5]: rapid commitment to apoptosis
commitment to apoptosis in S58A versus wild type 14-3-3ζ-Myc expressing cells (TMRE) ([2]; Jurkat cells expressing S58A 14-3-3ζ-Myc): delayed mitochondrial permeability transition
phosphorylatability of D20N 14-3-3ζ by PKA catalytic subunit [3]: only weakly phosphorylatable
phosphorylatability of wild-type 14-3-3ζ by PKA catalytic subunit [4]: increasing phosphorylatability
